# ChEMBL document CHEMBL1201861, “Genomics of Drug Sensitity in Cancer screening data, Wellcome Trust Sanger Institute”
# How the values were obtained:
# Test in all cases: cells
# [1] = test system: EW-13; assay type: functional, cell-based; conditions: Homo sapiens;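 further: growth inhibition of EW-13 cells, read out with a cell viability assay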
# Description: SANGER: Inhibition of human EW-13 cell growth in a cell viability assay.
# [2] = test system: KYSE-270; assay type: functional, cell-based, Homo sapiens; conditions: Homo sapiens, KYSE-270;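 further: cell growth inhibition measured with a viability assay in the human KYSE-270 line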
# Description: SANGER: Inhibition of human KYSE-270 cell growth in a cell viability assay.
# [3] = test system: GOTO; assay type: functional, cell-based, Homo sapiens; conditions: Homo sapiens, GOTO;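 further: growth inhibition of GOTO cells, read out by a cell viability assay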
# Description: SANGER: Inhibition of human GOTO cell growth in a cell viability assay.
# [4] = test system: HCC1395; assay type: functional, cell-based, Homo sapiens; conditions: Homo sapiens, HCC1395;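 further: growth inhibition of HCC1395 cells, read out by a cell viability assay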
# Description: SANGER: Inhibition of human HCC1395 cell growth in a cell viability assay.
# [5] = test system: GB-1; assay type: functional, cell-based, Homo sapiens; conditions: Homo sapiens, GB-1;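 further: growth of GB-1 cells judged by a viability assay, IC50 marks the concentration inhibiting growth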
# Description: SANGER: Inhibition of human GB-1 cell growth in a cell viability assay.
# [6] = test system: ES3; assay type: functional, cell-based, Homo sapiens; conditions: Homo sapiens, ES3;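 further: growth inhibition of ES3 cells, read out with a cell viability assay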
# [7] = test system: HC-1; assay type: functional, cell-based; conditions: Homo sapiens;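 further: growth inhibition of HC-1 cells measured by a cell viability assay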
# Description: SANGER: Inhibition of human HC-1 cell growth in a cell viability assay.
# [8] = test system: T84; assay type: functional, cell-based, Homo sapiens; conditions: Homo sapiens, T84;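 further: growth inhibition measured with a cell viability readout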
# Description: SANGER: Inhibition of human T84 cell growth in a cell viability assay.
# [9] = test system: SK-N-DZ; assay type: functional, cell-based, Homo sapiens; conditions: Homo sapiens, SK-N-DZ;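 further: growth inhibition of the cancer cell line, read out through a viability assay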
# Description: SANGER: Inhibition of human SK-N-DZ cell growth in a cell viability assay.
# [10] = test system: KYSE-140; assay type: functional, cell-based, Homo sapiens; conditions: Homo sapiens, KYSE-140;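 further: cell viability assay measuring growth inhibition in human KYSE-140 cells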
# Description: SANGER: Inhibition of human KYSE-140 cell growth in a cell viability assay.
# [11] = test system: 769-P; assay type: functional, cell-based, Homo sapiens; conditions: Homo sapiens, 769-P
# Description: SANGER: Inhibition of human 769-P cell growth in a cell viability assay.
# [12] = test system: GT3TKB; assay type: functional, cell-based, Homo sapiens; conditions: Homo sapiens, GT3TKB;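 further: growth inhibition of the cell line, read out with a cell viability assay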
# Description: SANGER: Inhibition of human GT3TKB cell growth in a cell viability assay.
# [13] = test system: CAS-1; assay type: functional, cell-based, Homo sapiens; conditions: Homo sapiens, CAS-1;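 further: growth inhibition of CAS-1 cells, measured with a cell viability assay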
# [14] = test system: SBC-1; assay type: functional, cell-based; conditions: Homo sapiens;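 further: cell viability assay measuring growth inhibition of the SBC-1 cell line, IC50 being the concentration that halves growth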
# Description: SANGER: Inhibition of human SBC-1 cell growth in a cell viability assay.
# [15] = test system: OVCAR-5; assay type: functional, cell-based, Homo sapiens; conditions: Homo sapiens, OVCAR-5;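 further: growth inhibition of human OVCAR-5 cells, read out with a cell viability assay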
# Description: SANGER: Inhibition of human OVCAR-5 cell growth in a cell viability assay.
# [16] = test system: CAL-120; assay type: functional, cell-based, Homo sapiens; conditions: Homo sapiens, CAL-120;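 further: cell growth inhibition, read out as cell viability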
# Description: SANGER: Inhibition of human CAL-120 cell growth in a cell viability assay.
# [17] = test system: KP-N-YS; assay type: functional, cell-based; conditions: Homo sapiens;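 further: cell viability assay measuring inhibition of cell line growth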
# Description: SANGER: Inhibition of human KP-N-YS cell growth in a cell viability assay.
# [18] = test system: OAW-28; assay type: functional, cell-based, Homo sapiens; conditions: Homo sapiens, OAW-28;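 further: growth inhibition of OAW-28 cells, read out with a cell viability assay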
# Description: SANGER: Inhibition of human OAW-28 cell growth in a cell viability assay.
# [19] = test system: CHL-1; assay type: functional, cell-based, Homo sapiens; conditions: Homo sapiens, CHL-1;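 further: cell growth inhibition, read out with a cell viability assay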
# Description: SANGER: Inhibition of human CHL-1 cell growth in a cell viability assay.
# [20] = test system: HCC1937; assay type: functional, cell-based, Homo sapiens; conditions: Homo sapiens, HCC1937;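 further: growth inhibition measured with a cell viability read-out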
# Description: SANGER: Inhibition of human HCC1937 cell growth in a cell viability assay.
# [21] = test system: NCI-N87; assay type: functional, cell-based, Homo sapiens; conditions: Homo sapiens, NCI-N87;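 further: growth inhibition of human NCI-N87 cells, read out with a cell viability assay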
# Description: SANGER: Inhibition of human NCI-N87 cell growth in a cell viability assay.
# [22] = test system: GR-ST; assay type: functional, cell-based; conditions: Homo sapiens
# Description: SANGER: Inhibition of human GR-ST cell growth in a cell viability assay.
# [23] = test system: SKG-IIIa; assay type: functional, cell-based, Homo sapiens; conditions: Homo sapiens, SKG-IIIa;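 further: cell growth inhibition, read out with a cell viability assay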
# Description: SANGER: Inhibition of human SKG-IIIa cell growth in a cell viability assay.
# [24] = test system: TE-6; assay type: functional, cell-based, Homo sapiens; conditions: Homo sapiens, TE-6;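 further: growth inhibition of TE-6 cells, read out with a cell viability assay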
# Description: SANGER: Inhibition of human TE-6 cell growth in a cell viability assay.
# [25] = test system: SW982; assay type: functional, cell-based; conditions: Homo sapiens;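 further: growth inhibition of SW982 cells, read out with a cell viability assay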
# Description: SANGER: Inhibition of human SW982 cell growth in a cell viability assay.
# [26] = test system: NCI-H1092; assay type: functional, cell-based; conditions: Homo sapiens;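 further: cell growth inhibition measured with a cell viability assay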
# Description: SANGER: Inhibition of human NCI-H1092 cell growth in a cell viability assay.
# [27] = test system: A2058; assay type: functional, cell-based; conditions: Homo sapiens;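 further: reduction of A2058 cell growth, read out with a viability assay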
# Description: SANGER: Inhibition of human A2058 cell growth in a cell viability assay.
# [28] = test system: HPAF-II; assay type: functional, cell-based, Homo sapiens; conditions: Homo sapiens, HPAF-II;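 further: growth inhibition of HPAF-II cells, read out with a cell viability assay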
# Description: SANGER: Inhibition of human HPAF-II cell growth in a cell viability assay.
# [29] = test system: GCIY; assay type: functional, cell-based, Homo sapiens; conditions: Homo sapiens, GCIY;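 further: growth inhibition of the human GCIY cell line, read out by a cell viability assay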
# Description: SANGER: Inhibition of human GCIY cell growth in a cell viability assay.
# [30] = test system: 697; assay type: functional, cell-based; conditions: Homo sapiens
# Description: SANGER: Inhibition of human 697 cell growth in a cell viability assay.
# [31] = test system: PFSK-1; assay type: functional, cell-based, Homo sapiens; conditions: Homo sapiens, PFSK-1;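 further: cell viability assay measuring how strongly compounds suppress growth of human PFSK-1 cells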
# Description: SANGER: Inhibition of human PFSK-1 cell growth in a cell viability assay.
# [32] = test system: MKN-1; assay type: functional, cell-based, Homo sapiens; conditions: Homo sapiens, MKN-1;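 further: growth inhibition of human MKN1 cells, read out by a cell viability measurement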
# Description: SANGER: Inhibition of human MKN1 cell growth in a cell viability assay.
# [33] = test system: SCC-15; assay type: functional, cell-based, Homo sapiens; conditions: Homo sapiens, SCC-15;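 further: growth inhibition of SCC-15 cells, read out with a cell viability assay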
# Description: SANGER: Inhibition of human SCC-15 cell growth in a cell viability assay.
# [34] = test system: NCI-H661; assay type: functional, cell-based, Homo sapiens; conditions: Homo sapiens, NCI-H661;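 further: cell viability assay read-out, IC50 being the concentration that inhibits growth of the cells by half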
# Description: SANGER: Inhibition of human NCI-H661 cell growth in a cell viability assay.
# [35] = test system: TE-8; assay type: functional, cell-based, Homo sapiens; conditions: Homo sapiens, TE-8;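 further: growth inhibition of TE-8 cells, measured with a cell viability readout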
# Description: SANGER: Inhibition of human TE-8 cell growth in a cell viability assay.
# [36] = test system: CAL-39; assay type: functional, cell-based, Homo sapiens; conditions: Homo sapiens, CAL-39;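 further: cell viability assay measuring growth inhibition of CAL-39 cells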
# Description: SANGER: Inhibition of human CAL-39 cell growth in a cell viability assay.
# [37] = test system: SBC-5; assay type: functional, cell-based, Homo sapiens; conditions: Homo sapiens, SBC-5;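 further: cell viability assay read-out, IC50 is the concentration that inhibits growth of the cells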
# Description: SANGER: Inhibition of human SBC-5 cell growth in a cell viability assay.
# [38] = test system: U-266; assay type: functional, cell-based; conditions: Homo sapiens
# Description: SANGER: Inhibition of human U-266 cell growth in a cell viability assay.
# [39] = test system: SCC-4; assay type: functional, cell-based, Homo sapiens; conditions: Homo sapiens, SCC-4;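 further: growth inhibition of human SCC-4 cells, read out as cell viability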
# Description: SANGER: Inhibition of human SCC-4 cell growth in a cell viability assay.
# [40] = test system: MHH-NB-11; assay type: functional, cell-based, Homo sapiens; conditions: Homo sapiens, MHH-NB-11;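 further: growth inhibition of human MHH-NB-11 cells, read out by a cell viability assay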
# Description: SANGER: Inhibition of human MHH-NB-11 cell growth in a cell viability assay.
# [41] = test system: P12-Ichikawa; assay type: functional, cell-based; conditions: Homo sapiens
# [42] = test system: COLO-680N; assay type: functional, cell-based, Homo sapiens; conditions: Homo sapiens, COLO-680N;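 further: cell viability assay used to measure inhibition of COLO-680N cell growth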
# Description: SANGER: Inhibition of human COLO-680N cell growth in a cell viability assay.
# [43] = test system: HuP-T4; assay type: functional, cell-based, Homo sapiens; conditions: Homo sapiens, HuP-T4;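 further: cell viability assay measuring how much HuP-T4 cell growth is inhibited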
# Description: SANGER: Inhibition of human HuP-T4 cell growth in a cell viability assay.
# [44] = test system: NCI-H2452; assay type: functional, cell-based, Homo sapiens; conditions: Homo sapiens, NCI-H2452;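 further: growth inhibition of NCI-H2452 cells, read out with a cell viability assay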
# Description: SANGER: Inhibition of human NCI-H2452 cell growth in a cell viability assay.
# [45] = test system: MDA-MB-231; assay type: functional, cell-based, Homo sapiens; conditions: Homo sapiens, MDA-MB-231
# Description: SANGER: Inhibition of human MDA-MB-231 cell growth in a cell viability assay.
# [46] = test system: RO82-W-1; assay type: functional, cell-based, Homo sapiens; conditions: Homo sapiens, RO82-W-1;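 further: growth inhibition of human RO82-W-1 cells, measured with a cell viability assay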
# Description: SANGER: Inhibition of human RO82-W-1 cell growth in a cell viability assay.
# [47] = test system: HCC1419; assay type: functional, cell-based, Homo sapiens; conditions: Homo sapiens, HCC1419;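 further: growth inhibition of human HCC1419 cells, read out as cell viability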
# Description: SANGER: Inhibition of human HCC1419 cell growth in a cell viability assay.
# [48] = test system: MS-1; assay type: functional, cell-based; conditions: Homo sapiens;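 further: growth inhibition of MS-1 cells, read out by cell viability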
# Description: SANGER: Inhibition of human MS-1 cell growth in a cell viability assay.
# [49] = test system: MMAC-SF; assay type: functional, cell-based, Homo sapiens; conditions: Homo sapiens, MMAC-SF;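 further: growth inhibition of human MMAC-SF cells, read out with a cell viability assay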
# Description: SANGER: Inhibition of human MMAC-SF cell growth in a cell viability assay.
# [50] = test system: NCI-H1299; assay type: functional, cell-based, Homo sapiens; conditions: Homo sapiens, NCI-H1299;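 further: growth inhibition of human NCI-H1299 cells, read out by a cell viability assay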
# Description: SANGER: Inhibition of human NCI-H1299 cell growth in a cell viability assay.
# [51] = test system: HuCCT-1; assay type: functional, cell-based, Homo sapiens, HuCCT1; conditions: Homo sapiens, HuCCT-1;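 further: growth inhibition of HuCCT-1 cells, read out by a cell viability assay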
# Description: SANGER: Inhibition of human HuCCT1 cell growth in a cell viability assay.
# [52] = test system: RS4-11; assay type: functional, cell-based; conditions: Homo sapiens;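 further: growth inhibition of RS4-11 cells, read out by a cell viability assay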
# Description: SANGER: Inhibition of human RS4-11 cell growth in a cell viability assay.
smiles,measurement,setting,value
Cc1ccc(Nc2nccc(N(C)c3ccc4c(C)n(C)nc4c3)n2)cc1S(N)(=O)=O [PAZOPANIB],IC50,[1],> 8 µM
same,IC50,[2],> 8 µM
same,IC50,[3],> 8 µM
same,IC50,[4],2.58 µM
same,IC50,[5],5.73 µM
same,IC50,[6],> 8 µM
same,IC50,[7],> 8 µM
same,IC50,[8],> 8 µM
same,IC50,[9],2.02 µM
same,IC50,[10],> 8 µM
same,IC50,[11],> 8 µM
same,IC50,[12],> 8 µM
same,IC50,[13],7.76 µM
same,IC50,[14],> 8 µM
same,IC50,[15],> 8 µM
same,IC50,[16],> 8 µM
same,IC50,[17],> 8 µM
same,IC50,[18],> 8 µM
same,IC50,[19],> 8 µM
same,IC50,[20],> 8 µM
same,IC50,[21],> 8 µM
same,IC50,[22],> 8 µM
same,IC50,[23],> 8 µM
same,IC50,[24],> 8 µM
same,IC50,[25],> 8 µM
same,IC50,[26],> 8 µM
same,IC50,[27],> 8 µM
same,IC50,[28],> 8 µM
same,IC50,[29],> 8 µM
same,IC50,[30],> 8 µM
same,IC50,[31],> 8 µM
same,IC50,[32],> 8 µM
same,IC50,[33],> 8 µM
same,IC50,[34],> 8 µM
same,IC50,[35],6.16 µM
same,IC50,[36],> 8 µM
same,IC50,[37],> 8 µM
same,IC50,[38],> 8 µM
same,IC50,[39],> 8 µM
same,IC50,[40],> 8 µM
same,IC50,[41],> 8 µM
same,IC50,[42],> 8 µM
same,IC50,[43],> 8 µM
same,IC50,[44],> 8 µM
same,IC50,[45],> 8 µM
same,IC50,[46],> 8 µM
same,IC50,[47],> 8 µM
same,IC50,[48],> 8 µM
same,IC50,[49],> 8 µM
same,IC50,[50],> 8 µM
same,IC50,[51],> 8 µM
same,IC50,[52],> 8 µM
CN(c1ncccc1CNc1nc(Nc2ccc3c(c2)CC(=O)N3)ncc1C(F)(F)F)S(C)(=O)=O [PF-00562271],IC50,[1],1.63 µM
same,IC50,[2],1.05 µM
same,IC50,[3],> 2.56 µM
same,IC50,[4],> 2.56 µM
same,IC50,[5],> 2.56 µM
same,IC50,[6],> 2.56 µM
same,IC50,[7],> 2.56 µM
same,IC50,[8],> 2.56 µM
same,IC50,[9],> 2.56 µM
same,IC50,[10],> 2.56 µM
same,IC50,[11],> 2.56 µM
same,IC50,[12],> 2.56 µM
same,IC50,[13],> 2.56 µM
same,IC50,[14],> 2.56 µM
same,IC50,[15],> 2.56 µM
same,IC50,[16],> 2.56 µM
same,IC50,[17],> 2.56 µM
same,IC50,[18],> 2.56 µM
same,IC50,[19],> 2.56 µM
same,IC50,[20],> 2.56 µM
same,IC50,[21],> 2.56 µM
same,IC50,[22],> 2.56 µM
same,IC50,[23],> 2.56 µM
same,IC50,[24],> 2.56 µM
same,IC50,[25],0.328 µM
same,IC50,[26],> 2.56 µM
same,IC50,[27],> 2.56 µM
same,IC50,[28],> 2.56 µM
same,IC50,[29],> 2.56 µM
same,IC50,[30],> 2.56 µM
same,IC50,[31],> 2.56 µM
same,IC50,[32],> 2.56 µM
same,IC50,[33],> 2.56 µM
same,IC50,[34],> 2.56 µM
same,IC50,[35],> 2.56 µM
same,IC50,[36],2.42 µM
same,IC50,[37],> 2.56 µM
same,IC50,[38],> 2.56 µM
same,IC50,[39],> 2.56 µM
same,IC50,[40],2.13 µM
same,IC50,[41],> 2.56 µM
same,IC50,[42],> 2.56 µM
same,IC50,[43],> 2.56 µM
same,IC50,[44],> 2.56 µM
same,IC50,[45],2.5 µM
same,IC50,[46],> 2.56 µM
same,IC50,[47],> 2.56 µM
same,IC50,[48],> 2.56 µM
same,IC50,[49],> 2.56 µM
same,IC50,[50],> 2.56 µM
same,IC50,[51],> 2.56 µM
same,IC50,[52],> 2.56 µM
Cn1cc(C2=C(c3ccc(Cl)cc3Cl)C(=O)NC2=O)c2ccccc21 [SB-216763],IC50,[1],> 10 µM
same,IC50,[2],> 10 µM
same,IC50,[3],> 10 µM
same,IC50,[4],> 10 µM
same,IC50,[5],> 10 µM
same,IC50,[6],> 10 µM
same,IC50,[7],> 10 µM
same,IC50,[8],> 10 µM
same,IC50,[9],> 10 µM
same,IC50,[10],> 10 µM
same,IC50,[11],> 10 µM
same,IC50,[12],> 10 µM
same,IC50,[13],> 10 µM
same,IC50,[14],> 10 µM
same,IC50,[15],> 10 µM
same,IC50,[16],> 10 µM
same,IC50,[17],> 10 µM
same,IC50,[18],> 10 µM
same,IC50,[19],> 10 µM
same,IC50,[20],> 10 µM
same,IC50,[21],> 10 µM
same,IC50,[22],> 10 µM
same,IC50,[23],> 10 µM
same,IC50,[24],> 10 µM
same,IC50,[25],> 10 µM
same,IC50,[26],> 10 µM
same,IC50,[27],> 10 µM
same,IC50,[28],> 10 µM
same,IC50,[29],> 10 µM
same,IC50,[30],> 10 µM
same,IC50,[31],> 10 µM
same,IC50,[32],> 10 µM
same,IC50,[33],> 10 µM
same,IC50,[34],> 10 µM
same,IC50,[35],> 10 µM
same,IC50,[36],> 10 µM
same,IC50,[37],> 10 µM
same,IC50,[38],> 10 µM
same,IC50,[39],> 10 µM
same,IC50,[40],> 10 µM
same,IC50,[41],> 10 µM
same,IC50,[42],> 10 µM
same,IC50,[43],> 10 µM
same,IC50,[44],> 10 µM
same,IC50,[45],> 10 µM
same,IC50,[46],> 10 µM
same,IC50,[47],> 10 µM
same,IC50,[48],> 10 µM
same,IC50,[49],> 10 µM
same,IC50,[50],> 10 µM
same,IC50,[51],> 10 µM
same,IC50,[52],8.24 µM
